The text below walks through data of PMC12637020, “Synthesis and biological evaluation of novel hydrazone derivatives for the treatment of Alzheimer's disease” (RSC Advances, 2025).

Molecules are shown by their SMILES.

A word on the IC50: it is the concentration at which inhibition is half-maximal. What is called inhibition is how much of the control response was suppressed.

Test [1] deals with BChE enzyme (Homo sapiens, UniProt P06276). The test is described as follows: biochemical. As to conditions: for inhibition at 1000 µM: read-out: BChE% inhibition 10^−3 M; for inhibition at 100 µM: read-out: BChE% inhibition 10^−4 M. The text has this: (§1) The assay was completed in two steps.
(§2) The potential inhibitory effects of the obtained molecules on the AChE and BChE enzymes was examined using a variation of the Ellman method.[31,33,41–43] Distilled water from the Millipore/Milli-Q purification apparatus was utilized at every stage of the biological activity investigations during the evaluation process. In less than a week, all the solutions required for the biological investigation were meticulously prepared from scratch. A “BioTek-Precision Power (United States)” robotic pipetting system was utilized to distribute the prepared solutions and apply the test compounds and enzyme–substrate solutions to 96-well plates. The “BioTek-Synergy H1 Microplate Reader (United States)” was employed to establish and follow the enzyme protocol for spectrophotometric measurements. Solutions of the compounds were prepared at two different concentrations, 10^−3 M and 10^−4 M, using dimethylsulfoxide (DMSO) as 2% solution, and these were used in biological activity studies.

For test [2], the system named is NIH/3T3 mouse embryonic fibroblast cell line. Nature of the test: MTT cytotoxicity test in NIH/3T3 cell line. The format is cell-based. Particulars: for Selectivity index: IC50 (NIH3T3)/IC50 (AChE); for IC50: Mus musculus, MTT, NIH3T3 fibroblast cells. On the procedure: The IC50 values of the compounds were determined by nonlinear regression analysis, allowing the cytotoxic properties of the compounds to be interpreted. The molecules D1f and D1c were active against AChE enzymes.
For cytotoxicity tests, the NIH/3T3 mouse embryonic fibroblast cell line (ATCC® CRL-1658TM, London, UK) was employed. The supplier's recommendation served as the basis for the NIH/3T3 cells' incubation time. In each well of the 96-well plates, […] NIH/3T3 cells were planted. The MTT assay was performed in compliance with the previously mentioned standards.[29,35]

For test [3], the target named is AChE enzyme (Homo sapiens, UniProt P22303). Nature of the test: biochemical. Particulars: for inhibitory activity: at concentrations of 1000 and 100 µM; for inhibition at 1000 µM: read-out: AChE% inhibition 10^−3 M; for inhibition at 100 µM: read-out: AChE% inhibition 10^−4 M; for IC50: tested at 10 to 0.001 µM. The test is classed as biochemical.
Description: as §1, §2

AChE enzyme, sequence (P22303 32-614): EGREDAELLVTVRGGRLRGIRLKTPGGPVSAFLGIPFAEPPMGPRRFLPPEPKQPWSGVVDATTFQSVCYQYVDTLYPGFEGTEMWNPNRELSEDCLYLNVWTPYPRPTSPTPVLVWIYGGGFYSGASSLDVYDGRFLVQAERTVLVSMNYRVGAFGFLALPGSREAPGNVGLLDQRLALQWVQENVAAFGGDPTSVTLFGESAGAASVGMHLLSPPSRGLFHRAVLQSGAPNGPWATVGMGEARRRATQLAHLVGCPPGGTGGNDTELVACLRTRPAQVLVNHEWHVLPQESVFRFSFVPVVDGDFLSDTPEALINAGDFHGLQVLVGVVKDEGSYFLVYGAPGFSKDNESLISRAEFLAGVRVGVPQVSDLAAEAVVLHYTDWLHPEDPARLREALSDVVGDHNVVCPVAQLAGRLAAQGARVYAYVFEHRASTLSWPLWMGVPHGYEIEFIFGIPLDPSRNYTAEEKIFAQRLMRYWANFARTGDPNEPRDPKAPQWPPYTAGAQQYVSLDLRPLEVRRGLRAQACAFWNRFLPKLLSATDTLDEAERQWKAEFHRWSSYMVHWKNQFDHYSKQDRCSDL
BChE enzyme, sequence (P06276 29-602, species assumed): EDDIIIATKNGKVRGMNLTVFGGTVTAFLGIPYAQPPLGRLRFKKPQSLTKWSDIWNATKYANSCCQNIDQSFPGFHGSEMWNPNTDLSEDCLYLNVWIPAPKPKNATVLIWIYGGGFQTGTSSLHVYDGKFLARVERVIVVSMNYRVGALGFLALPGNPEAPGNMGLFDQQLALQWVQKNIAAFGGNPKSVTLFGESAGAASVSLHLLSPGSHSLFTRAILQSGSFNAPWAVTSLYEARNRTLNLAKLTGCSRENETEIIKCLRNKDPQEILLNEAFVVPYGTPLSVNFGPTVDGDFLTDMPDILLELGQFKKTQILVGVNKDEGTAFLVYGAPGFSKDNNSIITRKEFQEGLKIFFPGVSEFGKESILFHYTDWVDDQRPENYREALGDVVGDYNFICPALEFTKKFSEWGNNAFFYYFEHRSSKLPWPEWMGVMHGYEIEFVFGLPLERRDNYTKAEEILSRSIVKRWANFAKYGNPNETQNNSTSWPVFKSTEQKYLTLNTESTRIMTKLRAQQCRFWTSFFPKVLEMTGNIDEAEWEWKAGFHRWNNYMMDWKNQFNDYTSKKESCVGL

For the compound `CC(=NN=c1scc(-c2ccc([N+](=O)[O-])cc2)n1C)c1ccc(N2CCCCC2)cc1` [D1c, 3-Methyl-4-(4-nitrophenyl)-2-((1-(4-(piperidin-1-yl)phenyl)ethylidene)hydrazineylidene)-2,3-dihydrothiazole], in test [1], the IC50 is above 1000 µM, the inhibition at 1000 µM amounted to 24.4 ± 0.941% and the inhibition at 100 µM was 21.6 ± 0.852%. For the same compound, in test [2], the Selectivity index is 8.310 and the IC50 came out at 2.41 ± 0.109 µM. Further, in test [3], the inhibitory activity entry is given as “more than 50%”, the inhibition at 1000 µM was 94.6 ± 2.35%, the inhibition at 100 µM stood at 90.3 ± 1.53% and the IC50 is 0.29 ± 0.01 µM.
With `CC(=NN=c1scc(-c2ccc(C#N)cc2)n1C)c1ccc(N2CCCCC2)cc1` [D1f, 4-(-3-Methyl-2-((1-(4-(piperidin-1-yl)phenyl)ethylidene)hydrazineylidene)-2,3-dihydrothiazol-4-yl)benzonitrile], in test [1], the IC50 was above 1000 µM, the inhibition at 1000 µM stood at 29 ± 1.24% and the inhibition at 100 µM was determined as 17 ± 0.784%. In test [2], the Selectivity index was 85.231 and the IC50 was determined as 3.32 ± 0.155 µM. Moreover, in test [3], the inhibitory activity entry is recorded as “more than 50%”, the inhibition at 1000 µM is 96.8 ± 2.09%, the inhibition at 100 µM turned out to be 91.2 ± 2.43% and the IC50 was 0.039 ± 0.001 µM.
For `CCn1c(-c2ccc([N+](=O)[O-])cc2)csc1=NN=C(C)c1ccc(N2CCCCC2)cc1` [D3c, 3-Ethyl-4-(4-nitrophenyl)-2-((1-(4-(piperidin-1 yl)phenyl)ethylidene)hydrazineylidene)-2,3-dihydrothiazole], in test [1], the IC50 is above 1000 µM, the inhibition at 1000 µM is 33.9 ± 1.54% and the inhibition at 100 µM amounted to 27.3 ± 1.16%. Also, in test [3], the inhibition at 1000 µM was 42.8 ± 2.04%, the inhibition at 100 µM stood at 38.2 ± 1.74% and the IC50 is above 1000 µM.
Regarding `CCn1c(-c2ccc(Cl)cc2)csc1=NN=C(C)c1ccc(N2CCCCC2)cc1` [D3d, 4-(4-Chlorophenyl)-3-ethyl-2-((1-(4-(piperidin-1-yl)phenyl)ethylidene)hydrazineylidene)-2,3-dihydrothiazole], in test [1], the IC50 was above 1000 µM, the inhibition at 1000 µM worked out at 37.5 ± 1.46% and the inhibition at 100 µM worked out at 21.3 ± 1.07%. In test [3], the inhibition at 1000 µM worked out at 32.3 ± 1.44%, the inhibition at 100 µM is 23.3 ± 1.05% and the IC50 was above 1000 µM.
Turning to `CCn1c(-c2ccc(OC)cc2)csc1=NN=C(C)c1ccc(N2CCCCC2)cc1` [D3e, 3-Ethyl-4-(4-methoxyphenyl)-2-((1-(4-(piperidin-1-yl)phenyl)ethylidene)hydrazineylidene)-2,3-dihydrothiazole], in test [1], the IC50 is above 1000 µM, the inhibition at 1000 µM came out at 36.3 ± 1.42% and the inhibition at 100 µM turned out to be 30.3 ± 0.956%. In addition, in test [3], the inhibition at 1000 µM came out at 34.1 ± 1.57%, the inhibition at 100 µM was determined as 21.6 ± 0.926% and the IC50 is above 1000 µM.
Take `CCn1c(-c2ccc(C#N)cc2)csc1=NN=C(C)c1ccc(N2CCCCC2)cc1` [D3f, 4-(-3-Ethyl-2-((-1-(4-(piperidin-1-yl)phenyl)ethylidene)hydrazineylidene)-2,3-dihydrothiazol-4-yl)benzonitrile]: in test [1], the IC50 was above 1000 µM, the inhibition at 1000 µM worked out at 30.2 ± 1.05% and the inhibition at 100 µM amounted to 21.1 ± 0.947%. In test [3], the inhibition at 1000 µM was determined as 57.4 ± 1.72%, the inhibition at 100 µM was 25.4 ± 0.856% and the IC50 was above 100 µM.
As to `CCn1c(-c2ccc(Cl)cc2Cl)csc1=NN=C(C)c1ccc(N2CCCCC2)cc1` [D3g, 4-(2,4-Dichlorophenyl)-3-ethyl-2-((1-(4-(piperidin-1 yl)phenyl)ethylidene)hydrazineylidene)-2,3-dihydrothiazole], in test [1], the IC50 is above 1000 µM, the inhibition at 1000 µM was 33.5 ± 1.26% and the inhibition at 100 µM was 26.8 ± 1.06%. In addition, in test [3], the inhibition at 1000 µM worked out at 26.7 ± 1.15%, the inhibition at 100 µM came out at 20.9 ± 0.884% and the IC50 is above 1000 µM.
On to `CCn1c(-c2ccc(Cl)c(Cl)c2)csc1=NN=C(C)c1ccc(N2CCCCC2)cc1` [D3h, 4-(3,4-Dichlorophenyl)-3-ethyl-2-((1-(4-(piperidin-1 yl)phenyl)ethylidene)hydrazineylidene)-2,3-dihydrothiazole], for which, in test [1], the IC50 was above 1000 µM, the inhibition at 1000 µM was 38.7 ± 1.32% and the inhibition at 100 µM was determined as 32.5 ± 1.13%. In addition, in test [3], the inhibition at 1000 µM was determined as 28.4 ± 1.25%, the inhibition at 100 µM amounted to 23.7 ± 0.969% and the IC50 was above 1000 µM.
Consider `CCn1c(-c2ccc(C)cc2C)csc1=NN=C(C)c1ccc(N2CCCCC2)cc1` [D3i, 4-(2,4-Dimethylphenyl)-3-ethyl-2-((1-(4-(piperidin-1-yl)phenyl)ethylidene)hydrazineylidene)-2,3-dihydrothiazole], for which, in test [1], the concentration for half-maximal inhibition (IC50) is above 1000 µM, the inhibition at 1000 µM worked out at 31.5 ± 1.04% and the inhibition at 100 µM stood at 24.1 ± 0.858%. In addition, in test [3], the inhibition at 1000 µM was 40.9 ± 1.59%, the inhibition at 100 µM was determined as 22.1 ± 0.962% and the IC50 is above 1000 µM.
